Earlier results in patent US7713983B2 (priority 2003, dated 2010).

Key:
NaV1.3 = NaV1.3 (Homo sapiens, UniProt Q9NY46); details: read-out: TTX IC50
neuropathic pain = details: in vivo

Chain of NaV1.3 (Q9NY46 whole entry, looked up): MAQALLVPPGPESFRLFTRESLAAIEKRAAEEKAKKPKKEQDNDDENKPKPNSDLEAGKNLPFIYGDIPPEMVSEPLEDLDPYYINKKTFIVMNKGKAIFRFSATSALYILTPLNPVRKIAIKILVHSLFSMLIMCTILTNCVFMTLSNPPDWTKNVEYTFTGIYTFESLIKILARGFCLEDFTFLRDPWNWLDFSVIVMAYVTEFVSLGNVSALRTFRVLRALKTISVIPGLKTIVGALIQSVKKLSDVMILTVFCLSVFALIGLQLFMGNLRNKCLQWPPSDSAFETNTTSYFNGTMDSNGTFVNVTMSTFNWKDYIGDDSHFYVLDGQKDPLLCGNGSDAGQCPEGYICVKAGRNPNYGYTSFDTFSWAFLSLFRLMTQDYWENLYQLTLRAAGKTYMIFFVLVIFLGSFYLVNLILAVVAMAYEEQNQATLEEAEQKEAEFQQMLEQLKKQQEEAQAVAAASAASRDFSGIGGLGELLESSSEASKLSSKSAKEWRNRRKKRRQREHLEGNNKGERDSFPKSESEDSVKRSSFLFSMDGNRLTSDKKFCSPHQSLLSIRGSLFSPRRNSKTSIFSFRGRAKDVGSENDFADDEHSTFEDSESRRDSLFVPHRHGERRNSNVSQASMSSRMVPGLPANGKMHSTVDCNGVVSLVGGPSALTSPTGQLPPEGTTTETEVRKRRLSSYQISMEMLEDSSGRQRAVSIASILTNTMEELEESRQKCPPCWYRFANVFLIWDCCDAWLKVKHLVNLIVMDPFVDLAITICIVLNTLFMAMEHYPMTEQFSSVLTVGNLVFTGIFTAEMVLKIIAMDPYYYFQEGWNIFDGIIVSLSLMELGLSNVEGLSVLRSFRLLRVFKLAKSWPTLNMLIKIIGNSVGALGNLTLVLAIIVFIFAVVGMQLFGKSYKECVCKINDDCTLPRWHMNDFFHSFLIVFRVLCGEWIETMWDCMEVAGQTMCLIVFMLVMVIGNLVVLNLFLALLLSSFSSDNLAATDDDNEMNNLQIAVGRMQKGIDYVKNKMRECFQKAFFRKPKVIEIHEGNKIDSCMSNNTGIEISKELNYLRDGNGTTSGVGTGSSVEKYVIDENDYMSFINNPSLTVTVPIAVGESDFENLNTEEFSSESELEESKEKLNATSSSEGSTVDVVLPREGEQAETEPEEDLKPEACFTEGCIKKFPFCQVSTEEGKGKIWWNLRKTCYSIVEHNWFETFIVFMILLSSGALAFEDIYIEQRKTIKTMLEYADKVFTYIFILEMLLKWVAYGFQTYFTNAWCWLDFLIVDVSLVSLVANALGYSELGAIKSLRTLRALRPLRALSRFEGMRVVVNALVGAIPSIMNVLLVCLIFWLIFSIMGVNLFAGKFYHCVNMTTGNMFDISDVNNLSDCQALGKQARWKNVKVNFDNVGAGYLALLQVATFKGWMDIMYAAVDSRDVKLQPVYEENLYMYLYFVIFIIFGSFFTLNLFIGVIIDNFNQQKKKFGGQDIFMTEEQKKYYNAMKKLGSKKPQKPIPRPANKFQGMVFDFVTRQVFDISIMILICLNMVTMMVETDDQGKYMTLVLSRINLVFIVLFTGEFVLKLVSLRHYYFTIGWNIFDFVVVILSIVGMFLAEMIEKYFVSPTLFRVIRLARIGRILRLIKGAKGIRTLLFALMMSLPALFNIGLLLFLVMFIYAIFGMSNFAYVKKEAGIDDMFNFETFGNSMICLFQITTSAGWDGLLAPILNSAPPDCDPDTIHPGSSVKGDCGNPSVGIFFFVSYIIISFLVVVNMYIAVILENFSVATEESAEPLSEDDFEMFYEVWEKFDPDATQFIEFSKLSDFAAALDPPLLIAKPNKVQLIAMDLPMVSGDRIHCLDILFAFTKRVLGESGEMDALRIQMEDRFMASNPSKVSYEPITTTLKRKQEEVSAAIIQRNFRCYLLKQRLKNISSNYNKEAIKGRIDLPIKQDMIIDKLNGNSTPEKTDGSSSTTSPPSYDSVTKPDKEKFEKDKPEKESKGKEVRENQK

SMILES	IC50 (NaV1.3) [µM]	share of patients in whom it works (neuropathic pain) [%]
NC1=N[C@H](O)[C@H]2[C@H]3O[C@]4(O)O[C@@H]([C@@H](O)[C@@]2(N1)[C@@H]4O)[C@]3(O)CO [TTX, tetrodotoxin]	0.015	–
NCC1(CC(=O)O)CCCCC1 [Gabapentin]	–	60
